Here are results for two compounds from patent US8669291B2, “Phenyl substituted cycloalkylamines as monoamine reuptake inhibitors” (Sunovion Pharmaceuticals Inc., priority 2007, dated 2014).

Read-outs that look alike come from different tables or passages of the source.

Broadly, the IC50 is the midpoint of a concentration-inhibition curve. The half-life is how long it takes for the measured level to halve. A higher half-life goes with slow loss.

One series concerns reserpinized rat. The series can be described thus: reserpine-treated rat Parkinson's disease model. The class given is in vivo. On the procedure: The effects of compound 4 alone and in combination with L-DOPA were evaluated in the reserpine-treated rat Parkinson's disease model. The method, which detects antiparkinson activity (reversal of motor deficits and akinesia), follows that described by Johnston et al. (Exp Neurol, 191, 243-250, 2005). Eighteen hours prior to behavioural testing, rats were lightly anaesthetized with isoflurane and reserpine (3 mg/kg, sc) was injected along with saline (50 ml/kg) to prevent dehydration.
Accelerating Rotarod: Performance on an accelerating rotarod was assessed using a 4-station rat rotarod (MedAssociates, USA). The speed of rotation of the rotarod was increased from 3.5 to 35 rpm over 5 minutes and the time for which the animal remained on the rod determined as the mean of three trials.
Catalepsy Test: Catalepsy was assessed by placing the rat's forepaws on top of a horizontal wooden rod suspended 6 cm above the bench surface. Time taken to remove both paws from the rod was recorded, up to a maximum of 120 seconds. Three trials per animal were conducted.
Open Field: Activity in an open field arena was assessed using automated activity monitors (Linton Instrumentation, UK). Rats were placed in the activity boxes and locomotor activity was recorded over a 240 minute period.
Drug Administration: For the monotherapy experiment, the effects of 5 different treatments were assessed: 1) vehicle (sterile water, PO), 2) 3 mg/kg compound 4 (PO), 3) 10 mg/kg compound 4 (PO), 4) 30 mg/kg compound 4 and 5) 80 mg/kg (IP) of the positive reference substance, L-DOPA (80 mg/kg). In the combination experiment, 5 different treatments were assessed: 1) compound 4 vehicle (PO)+L-DOPA vehicle (IP), 2) compound 4 (10 mg/kg, PO)+L-DOPA vehicle (IP), 3) compound 4 vehicle (PO)+L-DOPA (30 mg/kg, IP), 4) compound 4 (10 mg/kg, PO)+L-DOPA (30 mg/kg, IP) and 5) compound 4 vehicle (PO)+L-DOPA (80 mg/kg, IP). Treatments were given in a randomized fashion and each animal received all treatment conditions. Compound 4 was administered 60 minutes prior to behavioral assessment and L-DOPA was administered immediately prior to behavioral testing.

Series [1] has as its target T1, human dopamine (DA) reuptake transporter (Homo sapiens, UniProt Q01959).
T1 construct: expressed in transfected cells
Put plainly: functional uptake assay, human DA reuptake transporter. The class given is cell-based. On the procedure:
(§1) Compounds were tested for their inhibition of functional uptake of serotonin (5-HT), norepinephrine (NE), and dopamine (DA), in synaptosomes prepared from rat whole brain, hypothalamus, or corpus striatum, respectively, and/or using recombinant human transporters.

The target in another series is HERG current (Homo sapiens, UniProt Q12809). Put plainly: inhibition of HERG current. Type of series: cell-based. The text has this: (§2) 4b. In Vitro PK Data (Human Metabolic Stability, Inhibition of CYP450 Enzymes, Inhibition of HERG Current)
Series [2] deals with mice. Put plainly: Mouse Locomotor Activity. Type of series: in vivo. The following applies: PO. On the procedure:
In order to ensure effects of the compounds on immobility time were not related to a general stimulant effect on baseline motor activity, locomotor activity was assessed using photocell monitored cages (Med-Associates Inc.). Each test chamber was equipped with infrared photocell beams to measure movement of the animals. Horizontal and vertical activity were measured.
Rats or mice were pretreated with vehicle or test compounds and placed back in home cage, following which they were individually placed in locomotor cages and activity was monitored in 1-5 minute intervals for intervals up to 60 min.
(§3) Data were analyzed by one way analysis of variance (ANOVA) followed by post-hoc comparisons where appropriate. An effect was considered significant if p<0.05. Data are represented as the mean and standard error to the mean (s.e.m).

The target in series [3] is T2, human norepinephrine (NE) reuptake transporter (Homo sapiens, UniProt P23975).
T2 construct: expressed in transfected cells
The series can be described thus: functional uptake assay, human NE reuptake transporter. Type of series: cell-based. On the procedure:
as §1

Series [4] is described as follows: human metabolic stability (HLM t1/2). The class given is in vitro ADME. The following applies: human liver microsomes.
Description: as §2

For series [5], the system named is CYP2D6, CYP2C9, CYP3A4, CYP2C19, CYP1A (printed 1a). Put plainly: inhibition of CYP450 enzymes. Type of series: in vitro ADME. The following applies: 5 isoforms; read-out: CYP inhibition IC50 (microM) 5 isoforms (2D6, 2C9, 3A4, 2C19, 1a).
Description: as §2

Series [6] deals with T3, human serotonin (5-HT) reuptake transporter (Homo sapiens, UniProt P31645).
T3 construct: expressed in transfected cells
Put plainly: functional uptake assay, human 5-HT reuptake transporter. The class given is cell-based. On the procedure: as §1

Series [7] has as its system mice. Put plainly: Mouse Tail Suspension Test. The class given is in vivo. The following applies: PO. On the procedure:
The method, which detects antidepressant activity, follows that described by Stéru et al (Psychopharmacology, 85: 367-370 (1985)). Rodents, suspended by the tail, rapidly become immobile. Antidepressants decrease the duration of immobility.
The behavior of the animal was recorded automatically for 5 minutes using a computerized device (Med-Associates Inc.) similar to that developed by Stéru et al (Prog. Neuropsychopharmacol. Exp. Psychiatry 11: 659-671 (1987)). Ten to twelve mice were tested in each group. Compounds were typically evaluated at 3 doses (1-30 mg/kg), administered orally one time: 30-60 minutes before the test, and compared with a vehicle control group. Desipramine (100 mg/kg), administered under the same experimental conditions, was used as the positive reference substance.
as §3

[8] abbreviates: Example 6 summary of selected in vitro data, read-out: 5-HT IC50.

T2 sequence (P23975 whole entry): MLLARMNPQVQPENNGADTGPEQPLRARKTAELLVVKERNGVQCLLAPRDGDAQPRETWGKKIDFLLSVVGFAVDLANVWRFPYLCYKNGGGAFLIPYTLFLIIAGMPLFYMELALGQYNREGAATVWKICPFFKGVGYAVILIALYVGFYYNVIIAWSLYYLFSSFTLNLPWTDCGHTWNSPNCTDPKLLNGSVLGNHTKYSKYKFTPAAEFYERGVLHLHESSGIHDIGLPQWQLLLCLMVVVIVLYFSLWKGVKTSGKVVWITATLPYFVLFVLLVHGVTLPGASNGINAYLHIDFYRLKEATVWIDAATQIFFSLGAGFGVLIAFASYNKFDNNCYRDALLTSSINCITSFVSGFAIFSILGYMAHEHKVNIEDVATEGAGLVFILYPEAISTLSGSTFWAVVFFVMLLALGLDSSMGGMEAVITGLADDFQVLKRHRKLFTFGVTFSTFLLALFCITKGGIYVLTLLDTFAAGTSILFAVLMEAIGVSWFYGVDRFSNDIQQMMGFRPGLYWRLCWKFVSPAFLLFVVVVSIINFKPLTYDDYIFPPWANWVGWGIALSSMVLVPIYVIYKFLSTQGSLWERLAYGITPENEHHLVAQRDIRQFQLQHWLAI
T3 sequence (P31645 whole entry): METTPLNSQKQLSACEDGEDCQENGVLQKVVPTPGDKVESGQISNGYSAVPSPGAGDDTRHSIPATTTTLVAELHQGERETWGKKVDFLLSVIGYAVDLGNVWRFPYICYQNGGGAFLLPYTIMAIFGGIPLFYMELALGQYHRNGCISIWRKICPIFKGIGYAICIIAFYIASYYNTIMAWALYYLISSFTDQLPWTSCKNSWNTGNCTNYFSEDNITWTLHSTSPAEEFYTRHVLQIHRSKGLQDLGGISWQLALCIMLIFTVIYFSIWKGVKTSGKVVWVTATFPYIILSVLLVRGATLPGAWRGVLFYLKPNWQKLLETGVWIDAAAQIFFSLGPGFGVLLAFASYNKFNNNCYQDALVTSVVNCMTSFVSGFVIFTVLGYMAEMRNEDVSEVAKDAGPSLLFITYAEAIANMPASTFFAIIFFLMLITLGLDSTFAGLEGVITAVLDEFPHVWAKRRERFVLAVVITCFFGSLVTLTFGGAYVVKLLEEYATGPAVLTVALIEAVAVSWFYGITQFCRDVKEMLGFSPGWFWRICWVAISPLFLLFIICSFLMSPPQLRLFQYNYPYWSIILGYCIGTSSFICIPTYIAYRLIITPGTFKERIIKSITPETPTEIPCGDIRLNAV
T1 sequence (Q01959 whole entry): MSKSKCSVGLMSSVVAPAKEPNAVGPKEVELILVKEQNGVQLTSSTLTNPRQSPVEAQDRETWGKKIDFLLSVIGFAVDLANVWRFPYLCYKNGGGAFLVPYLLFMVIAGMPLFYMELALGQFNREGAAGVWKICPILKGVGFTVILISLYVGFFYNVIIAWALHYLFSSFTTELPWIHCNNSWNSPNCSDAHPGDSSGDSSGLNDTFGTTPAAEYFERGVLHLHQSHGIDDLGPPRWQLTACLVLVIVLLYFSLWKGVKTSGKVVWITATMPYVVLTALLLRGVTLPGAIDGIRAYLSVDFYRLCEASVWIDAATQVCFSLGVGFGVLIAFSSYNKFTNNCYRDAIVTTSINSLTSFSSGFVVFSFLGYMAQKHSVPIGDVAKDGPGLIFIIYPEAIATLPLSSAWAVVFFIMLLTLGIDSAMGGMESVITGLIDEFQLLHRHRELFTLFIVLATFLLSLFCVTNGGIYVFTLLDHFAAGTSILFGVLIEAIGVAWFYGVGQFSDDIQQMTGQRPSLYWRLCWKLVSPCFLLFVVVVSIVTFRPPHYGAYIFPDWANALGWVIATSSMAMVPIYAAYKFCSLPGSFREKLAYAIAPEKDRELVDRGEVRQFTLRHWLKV
Chain of HERG current (Q12809 whole entry): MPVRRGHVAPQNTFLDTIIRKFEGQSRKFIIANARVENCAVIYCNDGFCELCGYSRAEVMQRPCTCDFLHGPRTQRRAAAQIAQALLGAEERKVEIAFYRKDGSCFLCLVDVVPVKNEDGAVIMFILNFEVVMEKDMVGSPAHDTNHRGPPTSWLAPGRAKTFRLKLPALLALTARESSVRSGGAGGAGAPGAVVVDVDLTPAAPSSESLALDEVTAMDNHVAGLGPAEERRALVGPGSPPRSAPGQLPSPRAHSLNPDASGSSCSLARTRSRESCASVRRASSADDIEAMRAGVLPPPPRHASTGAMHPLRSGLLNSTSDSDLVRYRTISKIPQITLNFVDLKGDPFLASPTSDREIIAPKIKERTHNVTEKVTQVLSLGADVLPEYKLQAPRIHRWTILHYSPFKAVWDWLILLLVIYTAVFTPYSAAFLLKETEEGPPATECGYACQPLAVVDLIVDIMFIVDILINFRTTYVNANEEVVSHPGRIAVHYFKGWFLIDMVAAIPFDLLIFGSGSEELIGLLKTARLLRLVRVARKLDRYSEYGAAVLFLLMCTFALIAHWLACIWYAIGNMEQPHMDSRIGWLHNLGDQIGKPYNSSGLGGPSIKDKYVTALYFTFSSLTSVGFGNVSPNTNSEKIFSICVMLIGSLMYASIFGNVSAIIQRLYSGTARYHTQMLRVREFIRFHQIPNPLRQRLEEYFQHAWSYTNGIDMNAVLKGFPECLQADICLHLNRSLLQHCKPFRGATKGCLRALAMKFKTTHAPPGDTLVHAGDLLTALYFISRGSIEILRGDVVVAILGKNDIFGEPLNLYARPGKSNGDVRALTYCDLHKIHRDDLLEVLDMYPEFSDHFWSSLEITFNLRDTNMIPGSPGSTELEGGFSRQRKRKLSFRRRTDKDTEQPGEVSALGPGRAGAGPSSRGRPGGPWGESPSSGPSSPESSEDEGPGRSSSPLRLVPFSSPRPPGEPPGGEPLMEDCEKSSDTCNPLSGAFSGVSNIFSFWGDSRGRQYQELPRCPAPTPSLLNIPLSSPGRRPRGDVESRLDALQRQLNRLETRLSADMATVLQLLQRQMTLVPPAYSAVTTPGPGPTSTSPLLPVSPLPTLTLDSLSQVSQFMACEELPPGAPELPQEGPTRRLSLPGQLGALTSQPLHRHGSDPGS

For the compound `CNC[C@@H]1CCCC[C@@]1(O)c1ccc(Cl)c(Cl)c1` [Compound 4], the “effects of combination with low dose L-DOPA compared with higher L-DOPA dose (80 mg/kg), rotarod” value in the series on reserpinized rat (10 mg/kg, PO + L-DOPA 30 mg/kg, FIG. 5) is “equal in magnitude and of longer duration”. Further, the “baseline locomotor activity (open field) performance” value in the series with reserpinized rat (alone, 3-30 mg/kg, PO, FIG. 2) is “dose-dependently improved performance”. The rotarod performance entry in the series on reserpinized rat (alone, 3-30 mg/kg, PO, FIG. 3) is listed as “dose-dependently improved performance”. In addition, the catalepsy performance entry in the series on reserpinized rat (alone, 3-30 mg/kg, PO, FIG. 4) was “dose-dependently improved performance”. Moreover, the IC50 was 10 to 200 nM in series [1]; 10 to 200 nM in series [1] (read-out: DA IC50 nM, Example 6 summary of selected in vitro data); 1000 to 15000 nM at HERG current; 10 to 200 nM in series [3]; 10 to 200 nM in series [3] (read-out: NE IC50 nM, Example 6 summary of selected in vitro data); > 10 µM in series [5]. Besides, the IC50 in series [6] (Example 4a, human reuptake transporter, read-out: 5-HT IC50) was > 10000 nM; in series [6] (setting [8]), > 10000 nM. The “Mouse Locomotor Activity Total Distance Traveled ± S.E.M.” value was “** (501-700 (**))” in the series on mice [2] (1 mg/kg), “** (501-700 (**))” with mice [2] (3 mg/kg), “*** (701-900 (***))” in the series on mice [2] (10 mg/kg) and “* (100-500 (*))” with mice [2] (30 mg/kg). This compound also gave a half-life in series [4] of 2.93 to 5.42 h. For the same compound, the “Mouse Tail Suspension Mean Immobility Time ± S.E.M.” value is “++++ (>191 (++++))” in the series on mice [7] (1 mg/kg), “++++ (>191 (++++))” in the series with mice [7] (3 mg/kg), “+++ (171-190 (+++))” in the series on mice [7] (10 mg/kg) and “+ (100-160 (+))” in the series on mice [7] (30 mg/kg).

In the case of `CN(C)C[C@@H]1CCCC[C@@]1(O)c1ccc(Cl)c(Cl)c1` (single isomer, unassigned) [Compound 2, cis-1-(3,4-dichlorophenyl)-2-((dimethylamino)methyl)cyclohexanol], the IC50 was 10 to 200 nM in series [1]; 10 to 200 nM in series [1] (Example 6 summary of selected in vitro data, read-out: DA IC50); 16000 to 30000 nM at HERG current (read-out: HERG IC50); 10 to 200 nM in series [3]; 10 to 200 nM in series [3] (Example 6 summary of selected in vitro data, read-out: NE IC50); > 20 µM in series [5]. Besides, the IC50 lay in the range of 7000 to 10000 nM in [6] (5-HT IC50 (nM), Example 4a, human reuptake transporter) and 1 to 2000 nM in series [6] (setting [8]). In addition, the “Mouse Locomotor Activity Total Distance Traveled ± S.E.M.” value was “** (501-700 (**))” with mice [2] (0.3 mg/kg), “** (501-700 (**))” in the series on mice [2] (1 mg/kg), “**** (>901 (****))” with mice [2] (10 mg/kg) and “* (100-500 (*))” in the series on mice [2] (30 mg/kg). The half-life in series [4] lay within 0.417 to 2.92 h. Besides, the “Mouse Tail Suspension Mean Immobility Time ± S.E.M.” value in the series with mice [7] (0.3 mg/kg) was “+++ (171-190 (+++))”; in the series on mice [7] (1 mg/kg), “+++ (171-190 (+++))”; with mice [7] (10 mg/kg), “+ (100-160 (+))”; in the series on mice [7] (30 mg/kg), “+ (100-160 (+))”.
